# Measured values published in PMC5562523 (Cell chemical biology, 2017).
# Key:
# [1] = system: CDC1551 katG::Tn mutant; format: cell-based, Mycobacterium tuberculosis; details: pH 5.7
# [2] = system: CDC1551 (ΔphoPR); format: cell-based; details: acidic pH
compound,measurement,setting,value
"COc1ccc(NC(=O)c2nc(S(C)(=O)=O)ncc2Cl)cc1Cl [AC2P36, 5-chloro-N-(3-chloro-4-methoxyphenyl)-2-methylsulfonylpyrimidine-4-carboxamide]","sensitivity of WT, katG::Tn mutant and complemented strain to AC2P36",[1],No difference was observed between the three strains
same,sensitivity of ΔphoPR mutant vs WT to AC2P36,[2],no differences were observed between WT or ΔphoPR sensitivity to AC2P36
